Legend:
[1] = system: GS-NS0 cell line 6A1(100)3; assay: GS-NS0 6A1 fed-batch culture (shake flask / airlift bioreactor): growth and antibody productivity by protein A-HPLC; conditions: for single cell productivity (qp): fed-batch shake flask
Description: (§1) Where not specified, antibody productivity or titer was determined by protein A-HPLC.
The GS-NS0 cell line 6A1(100)3, 6A1 for short, secreting recombinant mouse/human chimeric IgG cB72.3 (Bebbington, 1992, supra) was used in all experimental settings under this section. Cell culture was either carried out in shake flask culture or in a fed-batch mode in a 101 standard airlift bioreactor, essentially as described (Bebbington, 1992). Feeds essentially comprised amino acids and carbohydrate as described above for high-density media and fermentation, respectively. Feed volume was at 4% of post-inocculation volume. Feed was initiated at a rate of 0.2 ml/Lh when viable cell density exceeded 14×10^5 cells/ml. Temperature was controlled at 36.5 degree centigrade; for airlift, air saturation was at 15%. pH was controlled at pH 7.00. Culture was inoculated at 2×10^5 viable cells/ml. Medium is serum- and essentially protein-free growth medium ProCH04-CDM (BioWhittaker) supplemented with […] methionine sulfoximine (MSX). Cells were pre-adapted to medium. […] Positively, it did prolong stationary phase upon fermentation.
Cumulative cell time (10^6 cell/h ml) was calculated by integration of the cell growth curve, essentially as described by Renard et al. (1988, Biotechnology Letters 10, 91-96).
Either sodium acetate or potassium acetate were added to shake flask culture during mid-exponential growth phase to the final concentrations stated in the respective sections of the table of FIG. 1. Cultures were counted daily by Trypan blue method and samples were taken for product analysis by means of protein A fractionation and HPLC analysis.
Duplicate cultures both for control and 10 mM sodium acetate supplemented culture were tested for viable cell concentration (determined by Trypan blue exclusion standard counting test). Feed was started at day 4. The acetate was not fed during growth phase as in FIG. 1 but was included in cell culture production medium right away to which the inocculum cells were added. […] The CCT remained essentially similar for all cultures.
Exp. 2 was conducted essentially as described above for exp. 1/FIG. 2, except that now 7.5 mM sodium acetate and a proprietary high-density culture medium was used, similar to the lipid supplemented high-density media described in EP435 911 A but distinct in employing less ethanolamine and no thioglycerole and keeping Tryptophan concentration constant at 19 mM by sensor-controlled automatic feeding. […] In contrast to exp. 1, the same maximum viable cell density could be achieved in the presence of actetate as compared to the control without acetate in the absence of any adverse effect on duration of stationary phase growth. Similarly, product concentration increased steadily over control and over time (FIG. 6).
In the permissible range, no increase in productivity could be seen at all, not even at the single cell level. The experiment was conducted essentially as described in exp. 1/FIG. 2, except that butyrate was added in the amounts shown instead of acetate. […] FIG. 9-11 show the effect of butyrate addition on CCT, antibody titer at harvest and single cell specific productivity (qp).

[2] = system: hybridoma cell line VPM 8; assay: VPM 8 hybridoma culture: CCT, harvest antibody titer, specific productivity
Description: as §1
A dose response study for addition of sodium acetate was carried out for hybridoma cell line VPM 8 (ECACC No. 93113024, European Collection of cell cultures, supra) essentially as described in exp. 3, except that VPM 8 was grown in commercial, protein-free medium CD-Hybridoma (Invitrogen/U.K.) and in that no MSX was added, since not being a GS cell line. VPM 8 is a mouse hybridoma that was generated by conventional means of cell fusion with non-secreting myeloma cells and secretes a murine IgG1 antibody.
The experiment has been carried out essentially as described in exp. 5, except that acetate was substituted with n-butyrate in the amounts stated in the figures.

CHO cell culture = conditions: added to medium with 1 mM sodium butyrate; lithium salts 10 mM, LPS 1 μg/ml, sodium acetate 10 mM; cited from earlier work
[3] = system: cultured human endothelial cells; conditions: acetate at 5 mM; cited from earlier work
[4] = 7.5 mM, high-density medium, Experiment 2
[5] = added during mid-exponential growth phase
[6] = CD-Hybridoma protein-free medium, Experiment 5

Compound: CC(=O)[O-].[Na+] [sodium acetate]
- cell growth parameters (cell growth rate and cumulative cell time) [1, 4]: only small decreases
- harvest antibody concentration [1, 4]: large increase
- productivity in fed-batch shake flask culture ([1]; 10 mM, added during mid-exponential growth phase, compared with potassium acetate at 10 mM or 15 mM): performed even better than potassium acetate
- effect on growth ([1]; Experiment 1, acetate supplementation): not to suppress growth
- Increases in protein yield ([1]; acetate-supplemented culture compared to control, Experiment 1): up to 98%
- growth suppression in terms of maximum cell density ([1]; fed-batch bioreactor, 10 mM included in production medium): No significant growth suppression
- single cell productivity (qp) [1, 5]: increased
- protein yield ([1]; grown with 10 mM acetate (control 470 mg/L)): 768 mg/L
- optimal concentration with regard to antibody yield and process robustness ([1]; proprietary high-density culture medium, Experiment 2): 7.5 mM
- productivity compared to non-treated control [2, 6]: enhanced productivity
- tolerance by the cells [2, 6]: tolerates acetate surprisingly easily in the mM range
- protein yield enhancing effect in comparison to the butyrate control (CHO cell culture): literally no benefit over the control
- expression-enhancing effect on tPA production [3]: did not differ significantly from the control

Compound: lipopolysaccharide [LPS, reference compound]
- protein yield enhancing effect in comparison to the butyrate control (CHO cell culture): about 4 times

Compound: [Cl-].[Li+] [LiCl, reference compound]
- modification of the effect of acetate addition ([1]; feed supplemented to final approx. 1-10 mM, data not shown): did not prove to modify the effect of acetate addition in any way

Compound: CCC(=O)O [proprionate]
- expression-enhancing effect on tPA production [3]: found to have such effect

Compound: CCCCC(=O)O [valerate]
- expression-enhancing effect on tPA production [3]: found to have such effect

Compound: CC(=O)[O-].[K+] [potassium acetate]
- single cell productivity (qp) [1, 5]: increased

Compound: CCCC(=O)[O-].[Na+] [Butyrate, sodium n-butyrate, reference compound]
- dose strongly toxic to the cells (rapid decrease of viable cell density) ([1]; Experiment 4): > 1 mM
- antibody productivity ([1]; butyrate added instead of acetate, Experiment 4): does not increase antibody productivity
- antibody titer ([2]; Experiment 6): not effective in increasing antibody titer
- toxicity for the cell line ([2]; Experiment 6): exceptional toxicity
- expression-enhancing effect on tPA production [3]: outstanding effect

From patent publication US8338177B2, “Cell culture medium” (Lonza Biologics PLC, priority 2002, dated 2012)
